Measured values as given in article PMC5161622 (ACS synthetic biology, 2016).
Entries after “also recorded” stand apart in the source; their conditions may differ.

Tests used:
β-gly W33G [1] = target: T1, β-gly W33G (Saccharolobus solfataricus, UniProt P22498, W33G); assay: 19F NMR competition assay with 6-fluoroindole reporter, β-gly W33G; assay type: binding, Sulfolobus solfataricus; details: 2 mM 6-fluoroindole, 500 μM protein; for displacement of 6-fluoroindole reporter (19F peak sharpening): 5 mM competitor
T1 sequence (P22498 whole entry W33G): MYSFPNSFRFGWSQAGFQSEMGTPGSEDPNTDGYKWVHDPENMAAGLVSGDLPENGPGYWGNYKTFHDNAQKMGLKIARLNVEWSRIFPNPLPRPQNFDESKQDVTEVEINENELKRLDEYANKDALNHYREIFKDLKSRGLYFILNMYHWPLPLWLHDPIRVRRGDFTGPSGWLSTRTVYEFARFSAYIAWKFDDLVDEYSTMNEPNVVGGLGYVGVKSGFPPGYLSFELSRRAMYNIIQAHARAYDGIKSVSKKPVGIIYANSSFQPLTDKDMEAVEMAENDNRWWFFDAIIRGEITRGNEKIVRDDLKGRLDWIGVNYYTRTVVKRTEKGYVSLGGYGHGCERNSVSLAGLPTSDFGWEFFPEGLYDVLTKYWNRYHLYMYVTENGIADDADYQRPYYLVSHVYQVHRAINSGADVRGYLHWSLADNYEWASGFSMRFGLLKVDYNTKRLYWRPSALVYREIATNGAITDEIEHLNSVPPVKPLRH

β-gly W33G [2] = target: T1, β-gly W33G; assay: β-glycosidase enzyme assay, rescue of β-gly W33G by effector ligands; assay type: biochemical, Sulfolobus solfataricus; details: for rescue of enzyme activity (in words) / enhancement of initial velocity relative to apo enzyme: 2 mM effector; for rescue of enzyme activity (in words) / agonist class / concentration dependence of initial velocity / effector dissociation constant KD (in words) / linkage term W (in words): 750 μM FDGal; for agonist class: concentration dependence; for concentration dependence of initial velocity / effector dissociation constant KD (in words) / linkage term W (in words): up to 5 mM effector; for effector dissociation constant KD (in words) / linkage term W (in words): fit of concentration dependence
β-gly W33A = β-gly W33A (Saccharolobus solfataricus, UniProt P22498, W33A); assay: β-glycosidase enzyme assay, rescue of β-gly W33A; assay type: biochemical, Sulfolobus solfataricus; details: 750 μM FDGal
Sequence of β-gly W33A (P22498 whole entry W33A): as the sequence (P22498 whole entry W33G) above, with G33A counted along it

β-gly W33G_V37A = β-gly W33G_V37A (Saccharolobus solfataricus, UniProt P22498, V37A/W33G); assay: β-glycosidase enzyme assay, rescue of β-gly W33G_V37A; assay type: biochemical, Sulfolobus solfataricus
Sequence of β-gly W33G_V37A (P22498 whole entry W33G/V37A): as the sequence (P22498 whole entry W33G) above, with V37A counted along it

WT β-gly = target: T2, WT β-gly (Saccharolobus solfataricus, UniProt P22498); assay: 19F NMR reporter binding, wild type β-gly; set-up: species or system Sulfolobus solfataricus; details: 2 mM 6-fluoroindole, 500 μM WT protein
T2 sequence (P22498 1-489): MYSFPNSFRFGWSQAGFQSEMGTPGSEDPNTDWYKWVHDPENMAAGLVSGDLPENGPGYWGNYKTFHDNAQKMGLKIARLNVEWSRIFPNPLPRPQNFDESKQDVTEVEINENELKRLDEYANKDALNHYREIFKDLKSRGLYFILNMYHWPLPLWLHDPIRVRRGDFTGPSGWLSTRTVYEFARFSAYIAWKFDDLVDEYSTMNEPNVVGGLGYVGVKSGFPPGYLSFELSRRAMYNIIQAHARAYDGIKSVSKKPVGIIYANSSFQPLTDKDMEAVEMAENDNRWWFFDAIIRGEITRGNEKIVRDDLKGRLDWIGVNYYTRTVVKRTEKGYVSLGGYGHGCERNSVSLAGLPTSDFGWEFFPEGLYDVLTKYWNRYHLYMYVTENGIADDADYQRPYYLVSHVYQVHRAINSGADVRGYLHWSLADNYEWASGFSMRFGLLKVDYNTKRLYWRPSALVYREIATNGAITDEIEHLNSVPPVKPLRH

β-gly W33G [3] = target: T1, β-gly W33G; details: 10 mM indole, cited from earlier work
[4] = fit of concentration dependence

SMILES | displacement of 6-fluoroindole reporter (19F peak sharpening) (β-gly W33G [1]) | rescue of enzyme activity (in words) (β-gly W33G [2]) | linkage term W (in words) (β-gly W33A; [4]) | agonist class (β-gly W33G [2]) | concentration dependence of initial velocity (β-gly W33G [2]) | linkage term W (in words) (β-gly W33G [2]) | further results
Cc1cc2ccccc2[nH]1 [2-methylindole] | very little, if any, peak sharpening; also recorded: does not bind to this site | no increase in activity over the apo enzyme | – | – | – | – | –
Cc1c[nH]c2ccccc12 [3-methylindole] | analogous peak sharpening | most rescue; also recorded: the next best rescuing compound | lower for W33A than for W33G | partial agonists | dose-dependent increases in the initial velocity | worse than for indole | rescue of enzyme activity (in words) (β-gly W33A): rescued activity better than indole; enhancement of initial velocity relative to apo enzyme (β-gly W33G [2]; FDGlc substrate 250 μM, indole versus 3-methylindole): difference in rescue between these substrates is greatly reduced; effector dissociation constant KD (in words) (β-gly W33G [2]): slightly better than for indole; also recorded: superior KD
Fc1ccc2[nH]ccc2c1 [5-fluoroindole] | – | – | – | – | enhanced β-glycosidase activity at each of the concentrations we tested | W favors indole | effector dissociation constant KD (in words) (β-gly W33G [2]): KD favors 5-fluoroindole
Cc1ccc2[nH]ccc2c1 [5-methylindole] | – | – | – | – | – | – | rescue of enzyme activity (in words) (β-gly W33G_V37A; 2 mM effector, 750 μM FDGal): superior over indole; ligand efficiency (binding free energy per non-hydrogen atom) (β-gly W33G_V37A; 5-methylindole / β-gly W33G_V37A switch): −0.43 kcal/mol·atom; binding affinity KD (in words) (β-gly W33G_V37A; fit of concentration dependence, 750 μM FDGal): almost an order of magnitude tighter than that of indole
Fc1ccc2cc[nH]c2c1 [6-fluoroindole] | – | very similar level as indole itself | – | – | – | – | 19F signal of reporter upon addition of protein (β-gly W33G [1]; covalent substrate analog attached): considerable peak broadening; 19F signal of reporter upon addition of protein (WT β-gly): no change to this peak
CNc1ccccc1 [N-methylaniline] | analogous peak sharpening | intermediate rescue | highest value of W | partial agonists | dose-dependent increases in the initial velocity | superior W value | rescue of enzyme activity (in words) (β-gly W33A): better than either indole or 3-methylindole; binding affinity KD (in words) (β-gly W33A; [4]): poor binding affinity
c1ccc2[nH]ccc2c1 [indole] | signal sharpens | about twice the activity of 5-methylindole | lower for W33A than for W33G | full agonist | dose-dependent increases in the initial velocity | highest linkage term (W) | restoration of kcat/Km relative to wild type (β-gly W33G [3]; W33G alone 730-fold decrease): completely restored; restoration of wild type activity (β-gly W33G [3]): fully restored wild type activity; enhancement of initial velocity relative to apo enzyme (β-gly W33G [2]; FDGal substrate 250 μM): better rescue with 2 mM indole than with 2 mM 3-methylindole; ligand efficiency (binding free energy per non-hydrogen atom) (β-gly W33G [2]; binding to β-gly W33G): −0.31 kcal/mol·atom
